Assay results as given in article PMC10573892, “β-Lactam TRPM8 Antagonists Derived from Phe-Phenylalaninol Conjugates: Structure–Activity Relationships and Antiallodynic Activity” (International Journal of Molecular Sciences, 2023).

Key:
hTRPA1 = target: T1, hTRPA1 (Homo sapiens, UniProt O75762); assay: TRPA1 channel Ca2+ microfluorimetry (allylisothiocyanate 10 μM); assay type: cell-based; settings: agonist allylisothiocyanate 10 μM
T1 construct: Eurofins-CEREP or Eurofins-PANLABS (contract assay)
From the text: (§1) The effects of compound 34 have been evaluated on different ion channels and receptors implicated in pain-related processes to assess the selectivity for TRPM8 channels. First, some TRP channels that play a role in temperature integration and nociception were selected, including hTRPV1, hTRPV3, hTRPA1 and TRPM3. Additionally, the evaluation encompassed the hASIC3 channel with widespread distribution within the peripheral nervous system and contributions to the excitability of primary sensory neurons. In each instance, the compound was subjected to evaluation at a consistent concentration of 10 µM.
(§2) Calcium fluorometry, Patch-Clamp assays and in vivo experiments were performed using the methodology previously described for TRPM8 [35] or TRPM3 [61]. In the Patch -Clamp experiments, the intracellular pipette solution contained (in mM) 140 KCl, 5 EGTA, and 10 mM HEPES, adjusted to pH 7.2 with KOH, and the extracellular solution contained (in mM) 140 NaCl, 2 CaCl2, 1 MgCl2, 10 D-glucose and 10 HEPES, adjusted to pH 7.4 with NaOH. Selectivity against TRPV1, TRPV3, TRPA1 and ASIC3 was subcontracted to Eurofins-CEREP or Eurofins-PANLABS (see ref. [35] for more details).

hCB2 = hCB2 (Homo sapiens, UniProt P34972); assay: Radioligand binding at cannabinoid CB2 receptor; settings: radioligand [3H]WIN 55212-2
From the text: (§3) Furthermore, the investigation extended to measuring the binding affinity of compound 34 to calcitonin gene-related peptide hCGRPR, cannabinoid hCB2 and muscarinic hM3 receptors, which are all relevant to different pain conditions.

hTRPV1 [1] = target: T2, hTRPV1 (Homo sapiens, UniProt Q8NER1); assay: TRPV1 channel Ca2+ microfluorimetry (capsaicin 30 nM); assay type: cell-based; settings: 10 μM; agonist capsaicin 30 nM
T2 construct: Eurofins-CEREP or Eurofins-PANLABS (contract assay)
From the text: as §1, §2

hTRPV3 = target: T3, hTRPV3 (Homo sapiens, UniProt Q8NET8); assay: TRPV3 channel Ca2+ microfluorimetry (2-APB 30 μM); assay type: cell-based; settings: agonist 2-APB 30 μM
T3 construct: Eurofins-CEREP or Eurofins-PANLABS (contract assay)
T3 sequence (Q8NET8 1-790): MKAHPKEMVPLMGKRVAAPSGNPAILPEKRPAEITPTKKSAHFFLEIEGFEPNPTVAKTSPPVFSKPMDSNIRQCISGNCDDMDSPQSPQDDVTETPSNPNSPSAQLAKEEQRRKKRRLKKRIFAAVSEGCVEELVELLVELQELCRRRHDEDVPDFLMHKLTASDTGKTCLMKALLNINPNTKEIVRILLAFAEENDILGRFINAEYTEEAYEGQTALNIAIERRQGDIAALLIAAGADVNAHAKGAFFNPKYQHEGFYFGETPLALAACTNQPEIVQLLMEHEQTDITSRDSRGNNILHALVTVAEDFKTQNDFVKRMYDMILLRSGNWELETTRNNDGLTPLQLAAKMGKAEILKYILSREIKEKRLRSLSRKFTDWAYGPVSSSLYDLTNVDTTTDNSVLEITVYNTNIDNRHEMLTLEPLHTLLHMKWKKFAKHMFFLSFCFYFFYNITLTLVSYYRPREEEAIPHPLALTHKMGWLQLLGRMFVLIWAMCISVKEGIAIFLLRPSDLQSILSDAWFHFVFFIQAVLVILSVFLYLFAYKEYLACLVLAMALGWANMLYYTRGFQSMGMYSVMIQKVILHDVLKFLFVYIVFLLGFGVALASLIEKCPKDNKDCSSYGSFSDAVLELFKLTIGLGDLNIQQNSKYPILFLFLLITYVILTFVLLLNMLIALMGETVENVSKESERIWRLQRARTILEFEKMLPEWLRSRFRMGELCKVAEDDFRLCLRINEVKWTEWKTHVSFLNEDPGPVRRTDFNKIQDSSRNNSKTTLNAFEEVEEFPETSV
From the text: as §1, §2

hASIC3 channel = target: T4, hASIC3 channel (Homo sapiens, UniProt Q9UHC3); assay: ASIC3 channel functional assay (buffer pH 5.5); assay type: cell-based
T4 construct: Eurofins-CEREP or Eurofins-PANLABS (contract assay)
T4 sequence (Q9UHC3 1-531): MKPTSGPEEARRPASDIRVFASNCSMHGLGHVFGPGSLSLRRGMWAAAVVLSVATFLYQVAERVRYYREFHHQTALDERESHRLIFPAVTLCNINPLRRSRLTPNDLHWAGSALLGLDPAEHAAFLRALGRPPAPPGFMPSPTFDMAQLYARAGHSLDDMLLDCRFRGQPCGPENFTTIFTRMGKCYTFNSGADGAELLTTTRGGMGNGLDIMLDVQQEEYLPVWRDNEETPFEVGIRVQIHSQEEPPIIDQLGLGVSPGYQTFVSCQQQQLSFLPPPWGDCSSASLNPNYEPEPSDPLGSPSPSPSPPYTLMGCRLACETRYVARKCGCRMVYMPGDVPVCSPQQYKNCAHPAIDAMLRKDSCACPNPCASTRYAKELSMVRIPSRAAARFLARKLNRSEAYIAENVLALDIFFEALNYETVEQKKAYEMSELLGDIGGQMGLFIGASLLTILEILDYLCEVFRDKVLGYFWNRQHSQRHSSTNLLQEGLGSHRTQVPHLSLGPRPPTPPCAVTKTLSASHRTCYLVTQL
From the text: as §1, §2

hTRPV1 [2] = target: T2, hTRPV1; parameters: method as in PMID 35269831; settings: model compound; cited from earlier work
hM3 = hM3 (Homo sapiens, UniProt P20309); assay: Radioligand binding at muscarinic M3 receptor; settings: radioligand [3H]4-DMAP
From the text: as §3

rTRPM8 = target: T5, rTRPM8 (Rattus norvegicus, UniProt Q8R455); assay: Patch-Clamp electrophysiology on single HEK293 cells expressing rat TRPM8; assay type: cell-based; settings: activation by 100 µM menthol; holding voltage −60 mV
T5 construct: expressed in transfected cells
From the text: A recent research study using Patch-Clamp, among other techniques, established that menthol occupies a cavity within the TRPM8 S1–S4 transmembrane helix, with the OH group forming an H-bond with the δ-NH of R842 residue, and Van der Waals interactions among the methyl groups of the ^iPr moiety and residues I846 and L843 [41].
This is evident by a negligible current at negative potentials and a linear intensification of the ohmic current at positive voltages. When applying compound 34 at a concentration of […], a noticeable reduction in menthol-induced activity at depolarizing voltages was observed (indicated by the red line) compared to menthol alone. Dose–response relationships for both tested compounds were established through triplicate experiments at various concentrations, applying a holding voltage of −60 mV (as shown in Figure 2B).
as §2
Figure 2 Compound 34 blocks TRPM8-mediated responses evoked by menthol in rTRPM8-expressing HEK293 cells. (A) IV curves obtained after exposure to vehicle solution (green trace), 100 µM menthol (blue trace) and 100 µM menthol + 10 µM 34 (red trace). Peak current data were expressed as pA/pF (to allow comparison among different size cells). Each point is the mean ± SEM of n = 15. (B) Concentration/response curves for rTRPM8 current blockade by 34 at a holding voltage of −60 mV. […]

hCGRPR = hCGRPR (Homo sapiens, UniProt O60894+Q16602); assay: Radioligand binding at CGRP receptor; settings: radioligand [125]hGCRPα
From the text: as §3

T2 sequence (Q8NER1 whole entry): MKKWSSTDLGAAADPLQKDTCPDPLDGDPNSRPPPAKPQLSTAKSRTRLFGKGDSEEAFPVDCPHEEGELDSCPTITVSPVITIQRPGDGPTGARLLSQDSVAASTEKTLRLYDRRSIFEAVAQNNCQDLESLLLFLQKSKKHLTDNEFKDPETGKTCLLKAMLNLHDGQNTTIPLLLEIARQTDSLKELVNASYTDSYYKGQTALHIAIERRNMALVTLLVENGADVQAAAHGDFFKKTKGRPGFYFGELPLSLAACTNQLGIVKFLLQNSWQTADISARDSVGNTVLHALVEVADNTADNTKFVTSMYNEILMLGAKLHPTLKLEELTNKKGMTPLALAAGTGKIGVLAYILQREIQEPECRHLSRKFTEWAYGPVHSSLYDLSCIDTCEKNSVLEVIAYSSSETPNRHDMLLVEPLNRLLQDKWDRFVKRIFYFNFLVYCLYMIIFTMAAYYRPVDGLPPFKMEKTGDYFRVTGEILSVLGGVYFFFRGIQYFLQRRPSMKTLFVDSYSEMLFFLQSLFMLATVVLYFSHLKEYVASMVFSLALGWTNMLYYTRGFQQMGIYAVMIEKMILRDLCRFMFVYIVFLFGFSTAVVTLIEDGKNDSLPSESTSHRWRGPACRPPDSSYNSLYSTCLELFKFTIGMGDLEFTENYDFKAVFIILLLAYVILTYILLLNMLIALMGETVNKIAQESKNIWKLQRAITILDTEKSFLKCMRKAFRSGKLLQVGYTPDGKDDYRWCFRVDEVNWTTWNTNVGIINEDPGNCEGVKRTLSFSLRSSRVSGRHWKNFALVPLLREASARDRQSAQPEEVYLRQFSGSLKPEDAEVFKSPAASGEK
hCB2, sequence (P34972 whole entry): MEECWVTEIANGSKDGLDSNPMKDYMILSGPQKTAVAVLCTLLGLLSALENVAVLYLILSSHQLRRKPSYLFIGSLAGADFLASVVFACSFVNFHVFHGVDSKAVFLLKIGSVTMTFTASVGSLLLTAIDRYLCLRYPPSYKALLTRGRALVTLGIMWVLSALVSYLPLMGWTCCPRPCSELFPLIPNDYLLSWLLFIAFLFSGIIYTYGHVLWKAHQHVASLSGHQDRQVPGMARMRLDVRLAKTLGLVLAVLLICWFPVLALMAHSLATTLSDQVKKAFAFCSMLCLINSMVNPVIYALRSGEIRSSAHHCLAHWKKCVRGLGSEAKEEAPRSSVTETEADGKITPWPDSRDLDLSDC
T5 sequence (Q8R455 whole entry): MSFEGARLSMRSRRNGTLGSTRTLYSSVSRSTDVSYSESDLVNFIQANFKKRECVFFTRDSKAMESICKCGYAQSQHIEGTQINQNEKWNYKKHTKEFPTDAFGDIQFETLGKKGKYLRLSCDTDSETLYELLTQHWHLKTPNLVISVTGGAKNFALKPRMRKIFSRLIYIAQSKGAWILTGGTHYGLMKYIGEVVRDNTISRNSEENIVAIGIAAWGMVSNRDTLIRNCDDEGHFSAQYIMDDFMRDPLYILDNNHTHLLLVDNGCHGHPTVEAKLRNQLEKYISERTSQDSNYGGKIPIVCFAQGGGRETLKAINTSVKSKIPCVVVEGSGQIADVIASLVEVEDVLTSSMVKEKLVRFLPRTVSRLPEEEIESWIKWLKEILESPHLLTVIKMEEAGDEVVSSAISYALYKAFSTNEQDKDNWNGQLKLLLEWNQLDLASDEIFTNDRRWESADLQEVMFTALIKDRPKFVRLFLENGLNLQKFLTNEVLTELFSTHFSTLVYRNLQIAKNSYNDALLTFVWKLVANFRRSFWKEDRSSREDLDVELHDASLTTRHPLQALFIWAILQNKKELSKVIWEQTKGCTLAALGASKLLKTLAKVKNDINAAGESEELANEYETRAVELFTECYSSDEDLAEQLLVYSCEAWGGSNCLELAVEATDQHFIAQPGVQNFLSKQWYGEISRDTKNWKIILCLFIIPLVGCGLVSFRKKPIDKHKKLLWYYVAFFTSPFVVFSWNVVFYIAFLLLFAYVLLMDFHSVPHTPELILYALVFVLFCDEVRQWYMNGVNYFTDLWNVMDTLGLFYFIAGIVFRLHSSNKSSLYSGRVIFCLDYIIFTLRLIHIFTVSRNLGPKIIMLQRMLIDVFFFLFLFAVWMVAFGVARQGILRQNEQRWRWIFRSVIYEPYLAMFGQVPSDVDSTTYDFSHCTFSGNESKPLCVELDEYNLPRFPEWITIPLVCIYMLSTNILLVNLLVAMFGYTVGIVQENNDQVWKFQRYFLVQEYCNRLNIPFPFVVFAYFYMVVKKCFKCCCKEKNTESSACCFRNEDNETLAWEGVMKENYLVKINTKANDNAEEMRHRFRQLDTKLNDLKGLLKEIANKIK
hCGRPR, sequence (Q16602 23-461): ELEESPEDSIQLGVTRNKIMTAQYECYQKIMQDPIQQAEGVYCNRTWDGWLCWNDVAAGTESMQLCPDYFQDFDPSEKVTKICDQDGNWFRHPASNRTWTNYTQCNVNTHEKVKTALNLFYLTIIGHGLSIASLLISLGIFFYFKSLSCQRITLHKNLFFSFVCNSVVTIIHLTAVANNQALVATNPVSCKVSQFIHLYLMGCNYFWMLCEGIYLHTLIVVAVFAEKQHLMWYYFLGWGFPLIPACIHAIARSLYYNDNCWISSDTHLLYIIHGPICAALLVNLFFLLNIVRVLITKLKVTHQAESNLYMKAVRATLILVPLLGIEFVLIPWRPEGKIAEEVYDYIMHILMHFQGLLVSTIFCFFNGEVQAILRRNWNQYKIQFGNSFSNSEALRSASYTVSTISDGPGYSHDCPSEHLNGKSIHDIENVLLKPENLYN
hCGRPR, sequence (O60894 27-148): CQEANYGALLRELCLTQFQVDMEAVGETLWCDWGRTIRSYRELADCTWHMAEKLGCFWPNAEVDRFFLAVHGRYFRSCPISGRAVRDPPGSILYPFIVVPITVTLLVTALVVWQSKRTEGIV
hM3, sequence (P20309 whole entry): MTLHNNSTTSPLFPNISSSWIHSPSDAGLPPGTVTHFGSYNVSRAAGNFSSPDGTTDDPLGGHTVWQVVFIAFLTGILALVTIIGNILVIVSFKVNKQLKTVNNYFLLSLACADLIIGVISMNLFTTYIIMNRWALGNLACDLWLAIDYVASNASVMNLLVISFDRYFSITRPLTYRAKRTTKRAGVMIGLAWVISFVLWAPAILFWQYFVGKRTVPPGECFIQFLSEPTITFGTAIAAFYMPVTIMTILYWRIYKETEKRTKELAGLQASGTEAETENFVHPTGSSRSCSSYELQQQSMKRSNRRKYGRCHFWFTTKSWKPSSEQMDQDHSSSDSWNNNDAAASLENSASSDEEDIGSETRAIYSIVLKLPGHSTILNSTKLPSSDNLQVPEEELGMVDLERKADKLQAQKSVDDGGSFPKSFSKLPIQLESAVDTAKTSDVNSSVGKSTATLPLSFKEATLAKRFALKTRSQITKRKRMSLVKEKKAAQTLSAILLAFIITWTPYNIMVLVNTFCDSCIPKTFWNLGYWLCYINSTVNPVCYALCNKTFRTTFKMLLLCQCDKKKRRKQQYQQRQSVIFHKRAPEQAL
T1 sequence (O75762 whole entry): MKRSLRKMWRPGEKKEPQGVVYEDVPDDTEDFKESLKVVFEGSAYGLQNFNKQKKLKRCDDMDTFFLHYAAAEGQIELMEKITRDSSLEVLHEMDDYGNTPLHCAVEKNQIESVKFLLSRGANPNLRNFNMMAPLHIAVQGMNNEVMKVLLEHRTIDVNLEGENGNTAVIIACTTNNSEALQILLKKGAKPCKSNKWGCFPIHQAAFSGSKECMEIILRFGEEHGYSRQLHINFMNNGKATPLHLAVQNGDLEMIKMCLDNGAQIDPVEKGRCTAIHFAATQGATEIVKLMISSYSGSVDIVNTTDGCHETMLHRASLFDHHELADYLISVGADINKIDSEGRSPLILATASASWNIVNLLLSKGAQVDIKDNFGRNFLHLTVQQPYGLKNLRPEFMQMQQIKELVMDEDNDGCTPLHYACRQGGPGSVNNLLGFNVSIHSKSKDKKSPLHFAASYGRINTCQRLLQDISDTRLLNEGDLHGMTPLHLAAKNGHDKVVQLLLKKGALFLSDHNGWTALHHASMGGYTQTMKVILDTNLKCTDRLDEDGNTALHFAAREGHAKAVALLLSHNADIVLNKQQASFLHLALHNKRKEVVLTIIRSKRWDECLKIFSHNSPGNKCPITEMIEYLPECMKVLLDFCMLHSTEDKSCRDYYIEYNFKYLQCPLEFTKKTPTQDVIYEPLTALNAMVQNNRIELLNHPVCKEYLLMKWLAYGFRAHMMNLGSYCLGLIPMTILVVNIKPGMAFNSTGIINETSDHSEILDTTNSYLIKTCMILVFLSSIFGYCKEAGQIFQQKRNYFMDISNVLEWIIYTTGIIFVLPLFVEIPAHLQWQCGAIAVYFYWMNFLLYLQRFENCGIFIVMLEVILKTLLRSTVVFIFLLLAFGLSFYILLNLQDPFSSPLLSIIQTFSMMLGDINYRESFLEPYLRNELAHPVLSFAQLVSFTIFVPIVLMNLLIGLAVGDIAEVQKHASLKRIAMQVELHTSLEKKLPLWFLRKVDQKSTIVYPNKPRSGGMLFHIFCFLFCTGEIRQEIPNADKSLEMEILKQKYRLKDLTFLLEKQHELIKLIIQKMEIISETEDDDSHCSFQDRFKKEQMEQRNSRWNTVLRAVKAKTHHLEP

inhibition at 10 µM (hTRPA1): 4.2 ± 1.1%
inhibition at 10 µM (hCB2): 7.3 ± 0.3%
inhibition at 10 µM (hTRPV1 [1]): 19.4 ± 1.7%
inhibition at 10 µM (hTRPV3): -6.3 ± 5.9%
inhibition at 10 µM (hASIC3 channel): 6 ± 0.9%
inhibition at 10 µM (hM3): -4.1 ± 3.1%
IC50 (rTRPM8): 600 ± 1660 nM
inhibition at 10 µM (hCGRPR): -1 ± 4.3%
Compound: C[C@@H]1C(=O)N(C[C@H](Cc2ccccc2)N(Cc2ccccc2)Cc2ccccc2)[C@]1(Cc1ccccc1)C(=O)OC(C)(C)C [Compound 1]
activation on the TRPV1 channel (hTRPV1 [2]): about 30%
